Tests used:
[1] = target: T1, VanAB (Pseudomonas putida, UniProt Q88GI6); assay: whole-cell consumption; type: cell-based; details: R. eutropha H16 expressing vanAB, sole carbon source, 30 °C
T1 sequence (Q88GI6 1-355): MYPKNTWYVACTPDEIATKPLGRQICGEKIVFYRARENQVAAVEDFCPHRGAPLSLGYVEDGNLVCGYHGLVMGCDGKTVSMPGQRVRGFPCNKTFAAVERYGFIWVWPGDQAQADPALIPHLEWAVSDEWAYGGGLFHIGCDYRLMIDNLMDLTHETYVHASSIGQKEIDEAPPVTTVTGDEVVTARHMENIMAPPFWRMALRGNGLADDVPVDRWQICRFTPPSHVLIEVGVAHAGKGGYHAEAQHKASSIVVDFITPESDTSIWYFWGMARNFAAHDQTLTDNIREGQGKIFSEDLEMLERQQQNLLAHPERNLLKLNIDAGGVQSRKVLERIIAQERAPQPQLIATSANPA
T1 sequence (Q88GI5 1-316 partner): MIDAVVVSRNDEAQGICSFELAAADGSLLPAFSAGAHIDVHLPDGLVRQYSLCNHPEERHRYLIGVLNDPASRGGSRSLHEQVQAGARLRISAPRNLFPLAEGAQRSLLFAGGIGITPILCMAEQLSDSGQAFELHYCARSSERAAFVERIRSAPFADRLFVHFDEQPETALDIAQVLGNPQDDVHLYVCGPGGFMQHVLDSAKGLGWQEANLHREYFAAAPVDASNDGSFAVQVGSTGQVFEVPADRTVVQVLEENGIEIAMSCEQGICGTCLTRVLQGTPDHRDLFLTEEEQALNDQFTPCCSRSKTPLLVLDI

[2] = target: LigM (Sphingobium sp. SYK-6, UniProt G2IQS7); assay: whole-cell consumption; type: cell-based; details: tetrahydrofolate cofactor; with ligH and metF in R. eutropha H16
LigM, sequence (G2IQS7 whole entry): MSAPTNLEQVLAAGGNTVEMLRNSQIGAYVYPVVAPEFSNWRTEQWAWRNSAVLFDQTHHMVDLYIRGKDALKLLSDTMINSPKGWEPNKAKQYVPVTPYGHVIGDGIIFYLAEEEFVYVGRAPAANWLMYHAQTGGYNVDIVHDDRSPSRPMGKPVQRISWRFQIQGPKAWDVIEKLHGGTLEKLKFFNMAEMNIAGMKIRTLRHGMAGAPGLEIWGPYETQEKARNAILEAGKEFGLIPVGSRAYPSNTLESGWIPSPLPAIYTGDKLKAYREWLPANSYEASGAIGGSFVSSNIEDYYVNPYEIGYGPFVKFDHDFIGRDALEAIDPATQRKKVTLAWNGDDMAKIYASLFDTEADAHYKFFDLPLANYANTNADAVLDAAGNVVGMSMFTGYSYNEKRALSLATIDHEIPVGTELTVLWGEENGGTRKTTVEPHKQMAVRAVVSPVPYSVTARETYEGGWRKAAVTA

COc1cc(C(=O)O)ccc1O [vanillic acid]
whole-cell consumption (HPLC) and growth [1]: expression of vanAB could enable the strain to use vanillic acid
whole-cell consumption (HPLC) and growth [2]: the demethylation process of the optimized LigM system is still the main rate-limiting step
